Data from US20070280915A1, “Combination Therapies Employing A Composition Comprising A Hmg Coa Reductase Inhibitor And A Vitamin B6 Related Compound” (priority 2003, published 2007).

What was measured:
Settings in all cases: 0.0169 to […] tested, na = concentration-dependent inhibition not observed
CYP1A2 = CYP1A2 (Homo sapiens, UniProt P05177); assay: CYP1A2 inhibition assay (Supersomes, fluorescent metabolite, substrate CEC)
Excerpt: (§1) The CYP inhibition assays used microsomes (Supersomes®, Gentest Corp., Woburn, Mass.) prepared from insect cells, each expressing an individual CYP subtype (CYP1A2, CYP2A6, CYP2B6, CYP2C8, CYP2C9, CYP2C19, CYP2D6, CYP2E1 or CYP3A4) expressed from the corresponding human CYP cDNA using a baculovirus expression vector. The microsomes also incorporated supplemental cDNA-expressed human reductase and/or cytochrome b5, as these enzymes stimulate the activity of the CYPs, allowing for a reduction in the amount of enzyme required per reaction (Gentest Corp.). The assays monitored, via fluorescence detection, the formation of a fluorescent metabolite following incubation of the microsomes with a specific CYP substrate. […]
(§2) Eight inhibitor and test compound concentrations were tested using 3-fold serial dilutions. […] The amount of metabolic product formed was quantified by fluorescence detection in a fluorescence plate reader utilizing excitation and emission filters that had been optimized for the detection of each metabolite.
(§3) Data Analysis—The mean of the duplicate fluorescent signals in the presence and absence (vehicle control) of each compound was calculated and corrected for the background noise. […]

CYP2C8 = target: T1, CYP2C8 (Homo sapiens, UniProt P10632); assay: CYP2C8 inhibition assay (substrate DBF)
T1 sequence (P10632 1-490): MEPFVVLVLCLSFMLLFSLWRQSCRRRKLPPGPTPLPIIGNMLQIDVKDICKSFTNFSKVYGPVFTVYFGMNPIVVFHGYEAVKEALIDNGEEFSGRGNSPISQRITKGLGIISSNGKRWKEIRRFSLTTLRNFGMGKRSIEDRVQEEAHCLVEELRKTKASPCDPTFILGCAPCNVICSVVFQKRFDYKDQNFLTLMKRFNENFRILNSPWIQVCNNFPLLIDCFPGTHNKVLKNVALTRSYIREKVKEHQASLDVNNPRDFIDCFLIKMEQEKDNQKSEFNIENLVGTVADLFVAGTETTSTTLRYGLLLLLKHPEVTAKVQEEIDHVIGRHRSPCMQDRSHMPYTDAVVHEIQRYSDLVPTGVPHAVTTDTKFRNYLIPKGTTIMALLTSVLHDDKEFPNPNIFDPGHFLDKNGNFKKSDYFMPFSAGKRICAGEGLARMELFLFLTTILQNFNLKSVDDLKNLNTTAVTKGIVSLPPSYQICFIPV
Excerpt: as §1, §2, §3

CYP2D6 = CYP2D6 (Homo sapiens, UniProt P10635); assay: CYP2D6 inhibition assay (substrate AMMC)
Excerpt: as §1, §2, §3

Measured: Pyridoxal 5′-phosphate IC50

Chain of CYP1A2 (P05177 whole entry): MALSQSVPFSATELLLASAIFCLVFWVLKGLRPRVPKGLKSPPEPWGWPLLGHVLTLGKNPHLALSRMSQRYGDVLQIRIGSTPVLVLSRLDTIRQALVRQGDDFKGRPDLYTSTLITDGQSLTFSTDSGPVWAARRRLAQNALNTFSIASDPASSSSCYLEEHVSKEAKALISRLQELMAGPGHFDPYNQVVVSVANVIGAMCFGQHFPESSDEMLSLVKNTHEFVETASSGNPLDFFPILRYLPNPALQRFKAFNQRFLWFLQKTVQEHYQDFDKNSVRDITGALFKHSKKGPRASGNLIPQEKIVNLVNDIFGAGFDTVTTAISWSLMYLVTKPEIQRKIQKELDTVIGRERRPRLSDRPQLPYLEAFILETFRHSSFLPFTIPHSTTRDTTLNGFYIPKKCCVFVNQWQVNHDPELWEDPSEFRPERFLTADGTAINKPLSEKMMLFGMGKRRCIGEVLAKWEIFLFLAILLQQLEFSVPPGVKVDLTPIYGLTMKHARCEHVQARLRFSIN
Chain of CYP2D6 (P10635 whole entry): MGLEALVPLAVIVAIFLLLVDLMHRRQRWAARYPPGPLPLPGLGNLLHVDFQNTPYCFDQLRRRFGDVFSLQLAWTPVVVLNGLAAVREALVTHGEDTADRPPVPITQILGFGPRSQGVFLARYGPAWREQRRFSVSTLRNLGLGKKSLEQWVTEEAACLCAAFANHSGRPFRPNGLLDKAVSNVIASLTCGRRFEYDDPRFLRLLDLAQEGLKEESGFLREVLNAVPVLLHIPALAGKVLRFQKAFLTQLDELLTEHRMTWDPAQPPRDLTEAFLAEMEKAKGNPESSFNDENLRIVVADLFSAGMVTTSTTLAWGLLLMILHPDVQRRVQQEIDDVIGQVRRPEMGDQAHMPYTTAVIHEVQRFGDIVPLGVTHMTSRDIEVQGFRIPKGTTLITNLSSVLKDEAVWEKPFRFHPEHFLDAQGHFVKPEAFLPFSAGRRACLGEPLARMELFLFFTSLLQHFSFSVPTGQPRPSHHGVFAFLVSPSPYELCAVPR

Cc1ncc(COP(=O)(O)O)c(C=O)c1O [P5P, pyridoxal-5-phosphate]
did not inhibit: all assays above
